Earlier results, collected in patent US12150970B2, “Composition for treatment of topical dermatological bacterial skin conditions” (ALPHYN BIOLOGICS, INC., priority 2021, dated 2024).

Test system: cells
Settings: compounds evaluated by Chen

| Molecule | effect on cell proliferation / healing (in words) |
| --- | --- |
| Oc1cc(O)c2c(c1)O[C@H](c1ccc(O)c(O)c1)[C@@H](O)C2 [Catechin, catechin] | little effect |
| Oc1cc(O)c2c(c1)O[C@H](c1cc(O)c(O)c(O)c1)[C@@H](O)C2 [Gallocatechin, gallocatechin] | slightly stimulating to cell proliferation |
| COc1ccc2c(=O)oc3c(OC)cc(CCN(C)C)c4c(=O)oc1c2c34 [Taspine, taspine] | little healing effects |
| COc1ccc([C@H]2Oc3c(OC)cc(CCCO)cc3[C@@H]2CO)cc1OC [dimethylcedrusin] | little healing effects |
| epicatechin | little effect |
| epigallocatechin | slightly stimulating to cell proliferation |
